# From patent publication US11926629B1, “Pyrido[3′,4′:4,5]pyrrolo[2,3-c]isoquinoline compounds as CK2 inhibitors” (KING FAISAL UNIVERSITY, priority 2023, dated 2024)
# Legend:
# MIAPaCa-2 (pancreas) = experiment: In vitro cytotoxic activity (MTT) assay, MIAPaCa-2; assay type: cell-based; details: Homo sapiens, MIA PaCa-2; MIAPaCa-2 (pancreas) cells, exposed for 96 hours; read-out: IC50, 50% inhibition of cell proliferation
# Method: (§1) Compounds 1-15 were screened for their in vitro cytotoxic activity utilizing a 3-(4,5-dimethyl-thiazol-2-yl)-2,5-diphenyltetrazolium bromide (MTT) assay against selected cancer human cell lines consisting of PC3 (prostate). HCT116 (colon), A375 (melanoma), H1299 (lung). MIAPaCa-2 (pancreas), HL60 (leukemia). MCF7 (breast), MDA-MB-231 (breast) (T. Mosmann, J. Immunol. Meth., 1983, 65, 55-63). The cells were cultured at 37° C. in RMPI1640 medium supplemented with 10% fetal bovine serum, 50 IU/mL penicillin, and 50 μg/mL streptomycin in a 5% CO2 incubator. All cells were sub-cultured 3 times/week by trypsinisation. Viable cells were seeded and allowed to adhere for 12 h before a test drug was added in 96-well plates at an initial density of 1.0×10^5 cells/mL. Tumour cell lines were separately exposed to various concentrations of the tested compounds followed by incubation at a temperature of 37° C. during 96 h inside a medium of fresh RMPI 1640. Cells were subsequently incubated at 37° C. using MTT at 0.5 mg/mL during 4 h. After removal of supernatant, formazan crystals were dissolved in isopropanol and the optical density was measured at 570 nm. CX-4945 was used as a positive control.
# MDA-MB-231 (breast) = experiment: In vitro cytotoxic activity (MTT) assay, MDA-MB-231; assay type: cell-based; details: Homo sapiens; MDA-MB-231 (breast) cells, exposed for 96 hours; read-out: IC50, 50% inhibition of cell proliferation
# Method: as §1
# H1299 (lung) = experiment: In vitro cytotoxic activity (MTT) assay, H1299; assay type: cell-based; details: Homo sapiens, NCI-H1299; H1299 (lung) cells, exposed for 96 hours; read-out: IC50, 50% inhibition of cell proliferation
# Method: as §1
# HCT116 (colon) = experiment: In vitro cytotoxic activity (MTT) assay, HCT116; assay type: cell-based; details: Homo sapiens, HCT-116; HCT116 (colon) cells, exposed for 96 hours; read-out: IC50, 50% inhibition of cell proliferation
# Method: as §1
# PC3 (prostate) = experiment: In vitro cytotoxic activity (MTT) assay, PC3; assay type: cell-based; details: Homo sapiens, Prostate cell; PC3 (prostate) cells, exposed for 96 hours; read-out: IC50, 50% inhibition of cell proliferation
# Method: as §1
# HL60 (leukemia) = experiment: In vitro cytotoxic activity (MTT) assay, HL60; assay type: cell-based; details: Homo sapiens, HL-60; HL60 (leukemia) cells, exposed for 96 hours; read-out: IC50, 50% inhibition of cell proliferation
# Method: as §1
# A375 (melanoma) = experiment: In vitro cytotoxic activity (MTT) assay, A375; assay type: cell-based; details: Homo sapiens, A-375; A375 (melanoma) cells, exposed for 96 hours; read-out: IC50, 50% inhibition of cell proliferation
# Method: as §1
# [1] = target: T1, recombinant human CK2 (RRββ-holoenzyme) (Homo sapiens, UniProt P68400); experiment: CK2 Kinase Assay; assay type: biochemical; details: final ATP concentration 15 μM, 10 min at 30° C.; read-out: IC50 protein kinase CK2 activity
# T1 construct: purchased Millipore
# T1 sequence (P68400 whole entry): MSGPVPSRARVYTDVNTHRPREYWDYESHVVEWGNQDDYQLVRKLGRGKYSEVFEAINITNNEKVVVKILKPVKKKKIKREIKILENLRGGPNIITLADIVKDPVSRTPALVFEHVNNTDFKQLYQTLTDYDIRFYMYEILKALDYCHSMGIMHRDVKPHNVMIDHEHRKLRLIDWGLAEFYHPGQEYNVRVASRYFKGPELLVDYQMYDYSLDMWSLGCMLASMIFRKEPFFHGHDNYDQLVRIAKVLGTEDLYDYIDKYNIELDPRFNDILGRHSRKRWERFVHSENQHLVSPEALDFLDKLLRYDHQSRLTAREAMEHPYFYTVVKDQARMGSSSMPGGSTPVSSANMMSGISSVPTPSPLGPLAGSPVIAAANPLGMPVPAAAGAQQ
# T1 sequence (P67870 whole entry partner): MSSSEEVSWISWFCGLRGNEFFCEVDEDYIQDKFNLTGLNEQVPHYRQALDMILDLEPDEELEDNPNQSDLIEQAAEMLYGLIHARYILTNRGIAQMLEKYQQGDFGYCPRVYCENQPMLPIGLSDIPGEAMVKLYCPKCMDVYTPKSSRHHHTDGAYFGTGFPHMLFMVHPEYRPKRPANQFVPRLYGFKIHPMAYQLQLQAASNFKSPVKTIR
# Method: CK2 Kinase Assay was conducted using the protocol as described in Pierre F. et al; J. Med. Chem. 2011, 54, 635-654. The tested compounds in aqueous solution were added at a volume of 10 μL to a reaction mixture comprising 10 μL of assay dilution buffer (ADB; 20 mM MOPS, pH 7.2, 25 mM β-glycerol phosphate, 5 mM EGTA, 1 mM sodium orthovanadate, and 1 mM dithiothreitol), 10 μL of substrate peptide (RRRDDDSDDD, dissolved in ADB at a concentration of 1 mM), 10 μL of recombinant human CK2 (RRββ-holoenzyme, 25 ng dissolved in ADB; Millipore). Reactions were initiated by the addition of 10 μL of ATP solution (90% 75 mMMgCl2, 75 μM ATP (final ATP concentration:15 μM) dissolved in ADB; 10% [γ-33P] ATP (stock 1 mCi/100 μL; 3000 Ci/mmol (Perkin-Elmer) and maintained for 10 min at 30° C. The reactions were quenched with 100 μL of 0.75% phosphoric acid and then transferred to and filtered through a phosphor cellulose filter plate (Millipore). After washing each well five times with 0.75% phosphoric acid, the plate was dried under vacuum for 5 min and, following the addition of 15 μL of scintillation fluid to each well, the residual radioactivity was measured using a Wallac luminescence counter. The IC50 values were derived from eight concentrations of test inhibitors.
# MCF7 (breast) = experiment: In vitro cytotoxic activity (MTT) assay, MCF7; assay type: cell-based; details: Homo sapiens; MCF7 (breast) cells, exposed for 96 hours; read-out: IC50, 50% inhibition of cell proliferation
# Method: as §1
structure (smiles),measurement,setting,value
"O=C(O)c1ccc2c(c1)c(Nc1cccc(Cl)c1)nc1[nH]c3ccncc3c12 [Compound 1, 5-((3-chlorophenyl)amino)-7H-pyrido[3′,4′:4,5]pyrrolo[2,3-c]isoquinoline-3-carboxylic acid]",IC50,MIAPaCa-2 (pancreas),1200 nM
same,IC50,MDA-MB-231 (breast),4.4 µM
same,IC50,H1299 (lung),900 nM
same,IC50,HCT116 (colon),2000 nM
same,IC50,PC3 (prostate),1100 nM
same,IC50,HL60 (leukemia),4.3 µM
same,IC50,A375 (melanoma),3.3 µM
same,IC50,[1],86 nM
same,IC50,MCF7 (breast),3.6 µM
